According to patent US20230167058A1, “GPX4 COMPOUNDS AND COMPOSITIONS AND METHODS OF TREATMENT USING SAME” (THE TRUSTEES OF COLUMBIA UNIVERSITY IN THE CITY OF NEW YORK, priority 2020, published 2023):

Target: T1, cellular GPX4 in HT1080 cell lysate (Homo sapiens, UniProt P36969)
T1 construct: endogenous in cells; host or cells: HT-1080 (ATCC), whole-cell lysate
T1 sequence (P36969 1-197): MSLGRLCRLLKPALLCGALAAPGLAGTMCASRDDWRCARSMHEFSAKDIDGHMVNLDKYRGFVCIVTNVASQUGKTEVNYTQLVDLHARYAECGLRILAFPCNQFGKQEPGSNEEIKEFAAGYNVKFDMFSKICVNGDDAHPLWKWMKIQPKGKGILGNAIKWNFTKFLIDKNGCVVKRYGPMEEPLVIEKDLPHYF
Test: NADPH-coupled cellular GPX4-specific activity, HT1080 cell lysate
Assay type: biochemical
Conditions: 500 μM LOC1886 added to lysate
Method: We applied a NADPH-coupled cellular GPX4 enzymatic activity assay as previously reported with minor modifications (Roveri et al. 1994). Oxidized glutathione, generated by GPX4 during reducing its specific phospholipid hydroperoxides substrate, was reduced by Glutathione Reductase at the expense of NADPH, the decrease in the characteristic absorbance of which at 340 nm was monitored and quantified as GPX4 activity. […] The concentration of protein in the lysate was determined using BCA assay kit using BSA as standards. […] Absorbance of NADPH at 340 nm was determined kinetically at 1 min interval over the 20 min time. […] Results were quantified using GraphPad Prism 9.
We applied a NADPH-coupled cellular GPX4 enzymatic activity assay as previously reported (Roveri et al. 1994). Oxidized glutathione, generated by GPX4 during reducing its specific phospholipid hydroperoxides substrate, was reduced by Glutathione Reductase at the expense of NADPH, the decrease in the characteristic absorbance of which at 340 nm was monitored and quantified as GPX4 activity. […] The concentration of protein in the lysate was determined using BCA assay kit using BSA as standards. […]

For `COc1cccc2[nH]c(C(=O)n3ccnc3)cc12` [LOC1886], the “capability of cellular GPX4 to reduce phospholipid hydroperoxides” value was “inhibited the capability of cellular GPX4”.
